In ChEMBL document CHEMBL1133817, “Discovery of novel, orally active dual NK1/NK2 antagonists” (Bioorg Med Chem Lett, 2001):

What was measured:
[1] = target: T1, Substance-K receptor (Oryctolagus cuniculus) (UniProt P79218); assay: Binding constant towards Tachykinin receptor 2 using BANK as agonist on rabbit pulmonary artery tissues.
T1 sequence (whole entry): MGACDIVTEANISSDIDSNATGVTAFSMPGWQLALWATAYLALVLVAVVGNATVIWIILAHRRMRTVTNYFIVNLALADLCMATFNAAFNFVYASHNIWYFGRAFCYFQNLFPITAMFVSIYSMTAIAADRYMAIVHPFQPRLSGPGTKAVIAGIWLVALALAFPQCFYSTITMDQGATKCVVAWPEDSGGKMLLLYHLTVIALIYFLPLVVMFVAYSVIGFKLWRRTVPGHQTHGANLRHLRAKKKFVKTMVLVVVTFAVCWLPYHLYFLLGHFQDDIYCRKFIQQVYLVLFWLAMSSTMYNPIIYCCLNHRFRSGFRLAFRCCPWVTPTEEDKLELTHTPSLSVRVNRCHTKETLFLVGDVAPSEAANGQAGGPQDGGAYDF

[2] = system: Substance-P receptor (Oryctolagus cuniculus); assay: Binding constant towards tachykinin receptor 1 using ASMSP as agonist on rabbit pulmonary artery tissues.

Row | pKB [1] | pKB [2] | Compound
1 | 6.99 | 8.42 | CN(C[C@@H](CCN1CCC(c2ccccc2[S+](C)[O-])CC1)c1ccc(Cl)c(Cl)c1)C(=O)c1cc(CC#N)cc2ccccc12 (stereo not given in full)
2 | 7.31 | 5.17 | CN(C)C(=O)c1cc(C(=O)N(C)C[C@@H](CCN2CCC(c3ccccc3[S+](C)[O-])CC2)c2ccc(Cl)c(Cl)c2)c2ccccc2c1 (stereo not given in full)
3 | 7.7 | 7.95 | COc1cc(C(=O)N(C)C[C@@H](CCN2CCC(c3ccccc3[S+](C)[O-])CC2)c2ccc(Cl)c(Cl)c2)c2ccccc2c1 (stereo not given in full)
4 | 7.62 | 8.55 | CN(C[C@@H](CCN1CCC(c2ccccc2[S+](C)[O-])CC1)c1ccc(Cl)c(Cl)c1)C(=O)c1cccc2cc(C#N)ccc12 (stereo not given in full)
5 | 7.29 | 8.03 | Cc1cc(C(=O)N(C)C[C@@H](CCN2CCC(c3ccccc3[S+](C)[O-])CC2)c2ccc(Cl)c(Cl)c2)c2ccccc2c1 (stereo not given in full)
6 | 8.18 | 7.89 | CN(C[C@@H](CCN1CCC(c2ccccc2[S+](C)[O-])CC1)c1ccc(Cl)c(Cl)c1)C(=O)c1cccc2ccccc12 (stereo not given in full)
7 | 7.54 | 6.92 | CN(C[C@@H](CCN1CCC(O)(c2ccc([S+](C)[O-])cc2)CC1)c1ccc(Cl)c(Cl)c1)C(=O)c1cccc2ccccc12 (stereo not given in full)
8 | 8.21 | 7.3 | CNC(=O)c1ccccc1C1CCN(CC[C@H](CN(C)C(=O)c2cccc3ccccc23)c2ccc(Cl)c(Cl)c2)CC1
9 | 8.23 | 6.78 | CN(C)C(=O)C1(N2CCCCC2=O)CCN(CC[C@H](CN(C)C(=O)c2cccc3ccccc23)c2ccc(Cl)c(Cl)c2)CC1
10 | 7.44 | 7.71 | C#Cc1cc(C(=O)N(C)C[C@@H](CCN2CCC(c3ccccc3[S+](C)[O-])CC2)c2ccc(Cl)c(Cl)c2)c2ccccc2c1 (stereo not given in full)
11 | 7.55 | 7.81 | CN(C[C@@H](CCN1CCC(c2ccccc2S(C)(=O)=O)CC1)c1ccc(Cl)c(Cl)c1)C(=O)c1cccc2ccccc12
12 | 9.03 | 8.16 | CN(C[C@@H](CCN1CCC(c2ccccc2[S+](C)[O-])CC1)c1ccc(Cl)c(Cl)c1)C(=O)c1cc([N+](=O)[O-])cc2ccccc12 (stereo not given in full)
13 | 7.17 | 7.41 | CC(=O)c1cc(C(=O)N(C)C[C@@H](CCN2CCC(c3ccccc3[S+](C)[O-])CC2)c2ccc(Cl)c(Cl)c2)c2ccccc2c1 (stereo not given in full)
14 | 7.1 | 7.15 | CN(C[C@@H](CCN1CCC(c2ccccc2[S+](C)[O-])CC1)c1ccc(Cl)c(Cl)c1)C(=O)c1cc(Cl)cc2ccccc12 (stereo not given in full)
15 | 6.76 | 7.4 | CN(C[C@@H](CCN1CCC(c2ccc([S+](C)[O-])cc2)CC1)c1ccc(Cl)c(Cl)c1)C(=O)c1cccc2ccccc12 (stereo not given in full)
16 | 7.34 | 6.31 | CN(C[C@@H](CCN1CCC(c2ccccc2[S+](C)[O-])CC1)c1ccc(Cl)c(Cl)c1)C(=O)c1ccc(C#N)c2ccccc12 (stereo not given in full)
17 | 6.86 | 5.68 | CN(C[C@@H](CCN1CCC(c2ccccc2[S+](C)[O-])CC1)c1ccc(Cl)c(Cl)c1)C(=O)c1cc(C(=O)O)cc2ccccc12 (stereo not given in full)
18 | 8.44 | 6.42 | CNC(=O)C1(N2CCCCC2=O)CCN(CC[C@H](CN(C)C(=O)c2cccc3ccccc23)c2ccc(Cl)c(Cl)c2)CC1
19 | 8.1 | 6.98 | CN(C[C@@H](CCN1CCC2(CC1)C[S+]([O-])c1ccccc12)c1ccc(Cl)c(Cl)c1)C(=O)c1cccc2ccccc12 (stereo not given in full)
20 | 8.15 | 7.9 | CN(C[C@@H](CCN1CCC(c2ccccc2[S+](C)[O-])CC1)c1ccc(Cl)c(Cl)c1)C(=O)c1cc(F)cc2ccccc12 (stereo not given in full)
21 | 7.02 | 7.54 | CN(C[C@@H](CCN1CCC(c2ccccc2[S+](C)[O-])CC1)c1ccc(Cl)c(Cl)c1)C(=O)c1cc(S(N)(=O)=O)cc2ccccc12 (stereo not given in full)
22 | 8.8 |  | CCN1C(=O)c2ccccc2[C@H]1[C@@H](CCN1CCC(c2ccccc2[S@+](C)[O-])CC1)c1ccc(Cl)c(Cl)c1
23 | 9.3 |  | CC(=O)NC1(c2ccccc2)CCN(CC[C@H](CN(C)C(=O)c2ccccc2)c2ccc(Cl)c(Cl)c2)CC1
24 | 8.39 |  | CN(C[C@@H](CCN1CCC(c2ccccc2[S@+](C)[O-])CC1)c1ccc(Cl)c(Cl)c1)C(=O)c1cc(C#N)cc2ccccc12 (stereo in doubt; 4b)
